Source: PMC7997578, “Design, Synthesis, Dynamic Docking, Biochemical Characterization, and in Vivo Pharmacokinetics Studies of Novel Topoisomerase II Poisons with Promising Antiproliferative Activity” (Journal of Medicinal Chemistry, 2020)
≈ marks a conversion by molar mass, not a printed value. Read-outs that look alike come from different tables or passages of the source.

Tests used:
human topoIIα = molecular target: T1, human topoIIα (Homo sapiens, UniProt P11388); assay: topoII decatenation assay (Inspiralis); type: biochemical; details: human topoIIα decatenation assay; mean ± SD of two independent experiments; read-out: IC50
T1 construct: purchased Inspiralis
T1 sequence (P11388 whole entry): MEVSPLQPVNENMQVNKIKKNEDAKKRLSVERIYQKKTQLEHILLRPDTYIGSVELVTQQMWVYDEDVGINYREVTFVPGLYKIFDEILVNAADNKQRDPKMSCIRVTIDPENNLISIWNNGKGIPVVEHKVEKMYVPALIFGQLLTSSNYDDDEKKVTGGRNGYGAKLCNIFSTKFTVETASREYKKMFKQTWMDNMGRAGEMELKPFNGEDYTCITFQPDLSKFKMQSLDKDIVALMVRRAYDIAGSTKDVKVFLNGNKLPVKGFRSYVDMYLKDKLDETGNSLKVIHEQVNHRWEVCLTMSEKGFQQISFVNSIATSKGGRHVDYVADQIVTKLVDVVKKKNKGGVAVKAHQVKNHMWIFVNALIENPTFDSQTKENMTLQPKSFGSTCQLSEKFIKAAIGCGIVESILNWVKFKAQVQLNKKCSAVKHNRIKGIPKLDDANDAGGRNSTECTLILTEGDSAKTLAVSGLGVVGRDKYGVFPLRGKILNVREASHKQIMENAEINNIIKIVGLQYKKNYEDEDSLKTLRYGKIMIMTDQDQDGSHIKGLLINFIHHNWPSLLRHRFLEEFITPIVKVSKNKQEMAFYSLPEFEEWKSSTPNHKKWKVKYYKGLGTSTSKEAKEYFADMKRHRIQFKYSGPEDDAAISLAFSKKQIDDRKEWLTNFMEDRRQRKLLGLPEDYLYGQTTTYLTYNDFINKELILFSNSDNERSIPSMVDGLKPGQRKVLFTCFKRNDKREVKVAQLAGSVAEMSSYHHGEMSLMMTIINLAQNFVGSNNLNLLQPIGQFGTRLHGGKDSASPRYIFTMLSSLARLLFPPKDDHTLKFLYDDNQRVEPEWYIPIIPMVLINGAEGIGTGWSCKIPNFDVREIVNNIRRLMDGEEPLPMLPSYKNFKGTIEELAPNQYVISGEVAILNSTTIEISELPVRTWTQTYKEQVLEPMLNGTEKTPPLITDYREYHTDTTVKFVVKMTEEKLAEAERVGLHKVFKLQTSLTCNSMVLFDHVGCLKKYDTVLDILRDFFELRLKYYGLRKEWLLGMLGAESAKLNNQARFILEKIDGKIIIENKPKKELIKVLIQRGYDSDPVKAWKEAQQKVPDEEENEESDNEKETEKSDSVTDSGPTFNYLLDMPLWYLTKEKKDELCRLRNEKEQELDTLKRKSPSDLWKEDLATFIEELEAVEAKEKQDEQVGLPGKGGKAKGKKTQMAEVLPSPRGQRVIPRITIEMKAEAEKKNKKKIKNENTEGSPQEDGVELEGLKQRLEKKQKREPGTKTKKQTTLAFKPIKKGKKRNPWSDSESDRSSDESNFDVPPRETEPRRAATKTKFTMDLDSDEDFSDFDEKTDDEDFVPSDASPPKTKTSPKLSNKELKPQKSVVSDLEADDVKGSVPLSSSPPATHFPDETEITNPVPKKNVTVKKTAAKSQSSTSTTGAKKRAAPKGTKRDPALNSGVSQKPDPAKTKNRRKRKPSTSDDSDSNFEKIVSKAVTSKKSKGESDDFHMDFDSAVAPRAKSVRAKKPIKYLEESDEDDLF
Protocol: We measured the inhibitor activity of our new compounds against human topoIIα, using a topoII decatenation assay (Table 1).
The activity of topoIIα was measured using a decatenation assay (Inspiralis) following the manufacturer’s instructions. Compounds were dissolved in DMSO and used at a concentration ranging from 200 to 1 μM. Final DMSO concentration in the assay was ≤1%. Reaction mixtures were incubated for 30 min at 37 °C and terminated with STEB buffer (40% (w/v) sucrose, 100 mM Tris-HCl, pH 8, 1 mM EDTA, 0.5 mg/mL bromophenol blue). Reaction products were resolved by electrophoresis in 1% agarose gels containing SYBR Safe DNA stain (Invitrogen), scanned, and quantified using the ChemiDoc system (BioRad). IC50 values were obtained with GraphPad Prism software (version 5.03) using the band intensities of the dose–response gels. Values are reported as the mean ± SD of two independent experiments.

DU145 cells [1] = assay: cell viability MTT assay, DU145; type: cell-based, human; details: Homo sapiens, DU-145, DU145 prostate cancer cells, mean ± SD of two experiments, read-out: DU145 antiproliferative activity IC50
Protocol: (§1) The antiproliferative activity of all compounds was evaluated in (i) DU145, an androgen-independent prostate cancer cell line; (ii) HeLa, a cervical cancer cell line; and (iii) A549, a lung adenocarcinoma cell line (Table 1). […] Undoubtedly, this preliminary cytotoxicity data will need further characterization, also in relation to the in vitro activity of these compounds.
(§2) Human cancer cell lines A549 (lung adenocarcinoma, ATCC CCL-185), DU-145 (androgen-independent prostate cancer, ATCC HTB-81), and HeLa (cervical carcinoma, ATCC CCL-2) were obtained from ATCC. Cells were routinely grown in minimal essential medium containing Eagle’s salts and L-glutamine supplemented with 10% heat-inactivated FBS in a humidified atmosphere of 5% CO2 at 37 °C. To assess the antiproliferative activity of the compounds, cells were seeded at a density of 2500 cells/well (HeLa) or 5000 cells/well (A549, DU-145) in 96-well plates, and cell viability was measured using the MTT assay as described previously.[39] Values are reported as the mean ± SD of two independent experiments.

HeLa cells [2] = assay: cell viability MTT assay, HeLa; type: cell-based, human; details: Homo sapiens, HeLa, HeLa cervical cancer cells, mean ± SD of two experiments, read-out: HeLa antiproliferative activity IC50
Protocol: as §1, §2

A549 cells [3] = assay: cell viability MTT assay, A549; type: cell-based, human; details: Homo sapiens, A549, A549 lung adenocarcinoma cells, mean ± SD of two experiments, read-out: A549 antiproliferative activity IC50
Protocol: as §1, §2

[4] = aqueous kinetic solubility; type: physicochemical; details: PBS, pH 7.4, PBS pH 7.4, target 250 µM, 2.5% DMSO, 25°C
Protocol: 1. In vitro m etabolic stabili ty
In vitro microsomial stability. 10mM DMSO stock solution of test compound was pre-incubated at 37 °C for 15min with mouse liver microsomes added 0.1M Tris-HCl buffer (pH 7.4). The final concentration was 4.6µM. After pre -incubation, the co-factors (NADPH, G6P, G6PDH and MgCl2 pre-dissolved in 0.1M Tris-HCl) were added to the incubation mixture and the incubation was continued at 37 °C for 1h. At each time point (0, 5, 15, 30, 60min), 30µL of incubation mixture was diluted with 200µL cold CH 3CN spiked with 200n M of internal standard, followed by centrifugation at 3500g for 15min. The supernatant was further diluted with H2O (1:1) for analysis. The concentration of test compound was quantified by LC/MS-MS on a Waters ACQUITY UPLC/M S TQD system consisting of a TQD (Triple Quadrupole Detector) Mass Spectrometer equipped with an Electrospray Ionization interface. The analyses were run on an ACQUITY UPLC BEH C18 (50x2.1mmID, particle size 1.7µm) with a VanGuard BEH C18 pre -column (5x2.1mmID, particle size 1.7µm) at 40°C, using 0.1% HCOOH in H 2O (A) and 0.1% HCOOH in CH 3CN (B) as mobile phase. Electrospray ionization (ESI) was app lied in positive mode . The percentage of test compound remaining at each time point relative to t=0 was calculated. The half -lives (t½) were determined by an one-phase decay equation using a non -linear regression of compound concentration versus time.
In vitro Plasma Stability. 10mM DMSO stock solution of test compound was diluted 50 -fold with DMSO-H2O (1:1) and incubated at 37 °C for 2 h with mouse plasma added 5% DMSO (pre-heated at 37 °C for 10 min). The final concentration was 2µM. At each time point (0, 5, 15, 30, 60, 120min), 50 µL of incubation mixture was diluted with 200µL cold CH3CN spiked with 200nM of internal standard, followed by centrifugation at 3500g for 20min. The supernatant was further diluted with H2O (1:1) for analysis. The concentration of test compound was quantified by LC/MS-MS on a Waters ACQUITY UPLC/MS TQD system consisting of a TQD (Triple Quadrupole Detector) Mass Spectrometer equipped with an Electrospray Ionization interface. The analyses were run on an ACQUITY UPLC BEH C18 (50x2.1mmID, particle size 1.7µm) with a VanGuard BEH C18 pre - column (5x2.1mmID, particle size 1.7µm) at 40°C, using 0.1% HCOOH in H2O (A) and 0.1% HCOOH in CH3CN (B) as mobile phase. Electrospray ionization (ESI) was applied in positive mode.
The response factors, calculated on the basis of the internal standard peak area, were plotted over time. When possible, response vs. time profiles were fitted with Prism (GraphPad Software, Inc., USA) to estimate compounds half-life in plasma.
2. Aqueous ki netic solu bili ty
The aqueous kinetic solubility was determined from a 10mM DMSO stock solution of test compound in Phosphate Buffered Saline (PBS) at pH 7.4. The study was performed by incubation of an aliquot of 10mM DMSO stock solution in PBS (pH 7.4) at a target concentration of 250µM resulting in a final concentration of 2.5% DMSO. The incubation was carried out under shaking at 25°C for 24h followed by centrifugation at 21.100g for 30min. The supernatant was analyzed by UPLC/MS for the quantification of dissolved compound by UV at a specific wavelength (215nm).
The analyses were performed on a Waters ACQUITY UPLC/MS SQD system consisting of a SQD (Single Quadrupole Detector) Mass Spectrometer equipped with Electrospray Ionization interface.
The analyses were run on an ACQUITY UPLC BEH C18 column (50x2.1mmID, particle size 1.7µm) with a VanGuard BEH C18 pre-column (5x2.1mmID, particle size 1.7µm), using 10mM NH4OAc in H2O at pH 5 adjusted with AcOH (A) and 10mM NH4OAc in MeCN-H2O (95:5) at pH 5 (B) as […]

[5] = molecular target: T2, topoII/DNA cleavage complex (Homo sapiens, UniProt P11388); assay: topoisomerase II cleavage complex assay; type: biochemical; details: 200 μM compound, 1 U topoII, plasmid DNA
T2 construct: purchased Inspiralis
T2 sequence (P11388 whole entry, one chain of several): as the sequence (P11388 whole entry) above
Protocol: Figure 2 Poison activity of the hybrid compounds. Agarose gel electrophoresis of plasmid DNA incubated in the absence (no enzyme) or presence of 1 U of topoII containing either 1% DMSO as control vehicle (no enzyme and topoII lanes) or 200 μM compound. Labels are shown above each lane. Numbers at the bottom correspond to the normalized intensity of the linear form (FIII). Plasmid forms are indicated by the arrow-points on the right: supercoiled (FI), nicked (FII), and linear (FIII).
Poison activity of the compounds was evaluated using a cleavage complex assay (Inspiralis) as described previously.[60] Compounds were tested at a fixed concentration of 200 μM in the presence of 1 U of topoisomerase II and 500 ng of […] plasmid at 37 °C for 6 min. Final DMSO concentration in the assay was 1%. Reaction products were subjected to electrophoresis in a 1% agarose gel, stained with SYBR Safe DNA stain, and DNA bands were visualized and quantified as described above.

DU145 cells [6] = tested on: DU145 cells; parameters: method as in PMID 29077404; details: etoposide and merbarone measured in ref 39, read-out: DU145 antiproliferative activity IC50; cited from earlier work
HeLa cells [7] = tested on: HeLa cells; parameters: method as in PMID 29077404; details: etoposide and merbarone measured in ref 39, read-out: HeLa antiproliferative activity IC50; cited from earlier work
A549 cells [8] = tested on: A549 cells; parameters: method as in PMID 29077404; details: etoposide and merbarone measured in ref 39, read-out: A549 antiproliferative activity IC50; cited from earlier work
human topoII = tested on: human topoII; parameters: method as in PMID 29077404; details: earlier values of the same authors; read-out: IC50 topoII blocker; cited from earlier work

Compound | IC50 (human topoIIα) [µM] | IC50 (DU145 cells [1]) [µM] | IC50 (HeLa cells [2]) [µM] | IC50 (A549 cells [3]) [µM] | solubility kinetic at 24 h [4] [µM] | mode of action in cleavage complex formation assay [5] | IC50 (DU145 cells [6]) [µM] | IC50 (HeLa cells [7]) [µM] | IC50 (A549 cells [8]) [µM] | IC50 (human topoII) [µM]
O=C(Nc1cccc(OC(F)F)c1)c1c(O)n(-c2ccccc2)c(=S)n(-c2ccccc2)c1=O [3g, N-(3-(Difluoromethoxy)phenyl)-6-hydroxy-4-oxo-1,3-diphenyl-2-thioxo-1,2,3,4-tetrahydropyrimidine-5-carboxamide] | 10.2 ± 1.9 | 6.5 ± 0.9 | 6.4 ± 0.5 | 4.8 ± 0.4 | > 200 | confirmed to be poisons | – | – | – | –
COc1cc([C@@H]2c3cc4c(cc3[C@@H](O[C@@H]3O[C@@H]5CO[C@@H](C)O[C@H]5[C@H](O)[C@H]3O)[C@H]3COC(=O)[C@H]23)OCO4)cc(OC)c1O [etoposide] | – | – | – | – | – | – | […] | 2.4 ± 0.9 | […] | […]
COc1cccc(NC(=O)c2c(O)n(-c3ccccc3)c(=S)n(-c3ccccc3)c2=O)c1 [ARN16267] | 16.1 ± 2.4 | 7.6 ± 0.8 | 5.5 ± 1.3 | 4.7 ± 0.3 | 236 (≈ 105 µg/mL) | – | – | – | – | 30 ± 6
O=C1NC(=S)NC(=O)C1C(=O)Nc1ccccc1 [merbarone, 6-hydroxy-4-oxo-N-phenyl-2-thioxo-1H-pyrimidine-5-carboxamide] | 26 ± 4.7 | – | – | – | – | – | 18.9 ± 2 | 62.3 ± 6.4 | – | 120 ± 12
O=C(Nc1cccc(C(F)F)c1)c1c(O)n(-c2ccccc2)c(=S)n(-c2ccccc2)c1=O [3i, N-(3-(Difluoromethyl)phenyl)-6-hydroxy-4-oxo-1,3-diphenyl-2-thioxo-1,2,3,4-tetrahydropyrimidine-5-carboxamide] | 11.4 ± 2.4 | 7.8 ± 0.2 | 4.9 ± 1.4 | 4.4 ± 0.2 | > 200 | confirmed to be poisons | – | – | – | –
